Holding throughout (type): in vivo
The test system of experiment [1] is mongrel dogs. Put plainly: Blood flow increasing action (vertebral and femoral arterial blood flow, blood pressure) in anesthetized dogs. The following applies: 1µg/kg, i.v., 5 head. As to the method:
Pharmacological Test Example 1 (Blood flow increasing action)
An experiment was carried out by anesthetizing adult made and female mongrel dogs (weight; 10 to 20kg) with Nembutal (30mg/kg, i.p.) and artificially respiring (20ml/kg/stroke, 20 strokes/min.) the animals.
Right vertebral and femoral arteries were exposed and each probe of electro-magnetic flow meter was fitted therein to measure vertebral and femoral arterial blood flows. A cannula was inserted into descending aorta from left femoral artery, in order to measure blood pressure by a pressure transducer connected to an amplifier. Each of test compounds dissolved in 50% ethanol solution (1µg/kg, i.v.) was administered from the cannula into cephlic vein.
Further, an amount of the compound required to increase the vertebral arterial blood flow by 50% was checked to obtain results shown in following Table 2, wherein the amount is given as ED₅₀ (µg/kg).

The subject of experiment [2] is spontaneously hypertensive rats. The experiment is described as follows: Blood pressure depressing action in spontaneously hypertensive rats. To be noted: male spontaneously hypertensive rats, oral, 3.0 mg/kg, N=6; for systric pressure of median sacral artery, change at 1 hr (%): 1 hr after administration; for systric pressure of median sacral artery, change at 2 hr (%): 2 hr after administration; for systric pressure of median sacral artery, change at 4 hr (%): 4 hr after administration; for systric pressure of median sacral artery, change at 6 hr (%): 6 hr after administration; for systric pressure of median sacral artery, change at 24 hr (%): 24 hr after administration.
Description: Pharmacological Test Example 2 (Blood pressure depressing action)

Experiment [3] has as its system mongrel dogs. Put plainly: Blood flow increasing action (vertebral and femoral arterial blood flow, blood pressure) in anesthetized dogs. The following applies: Canis lupus familiaris, iv, read-out: ED50, i.v. (amount required to increase the vertebral arterial blood flow by 50%).

Data on 4 molecules can be found in patent publication EP0280239A1, “1,4-Dihydropyridine derivatives, production and use thereof” (SANWA KAGAKU KENKYUSHO CO., LTD., priority 1987, dated 1988).

Regarding `CC1=C(C(=O)OCCN(C)Cc2ccc(Cl)cc2Cl)C(c2cccc([N+](=O)[O-])c2)C(C(=O)OCC2CC2)=C(C)N1` (centres unmarked) [Example 1, 3-Cyclopropylmethyl 5-[2-[N-(2,4-dichlorobenzyl)-N-methylamino]-ethyl]1.4-dihydro-2,6-dimethyl-4-(3-nitrophenyl)-pyridine-3,5-dicarboxylate], in the experiment on mongrel dogs [1], the “Change (%) DBP (Diastolic blood pressure)” value (from here on “Change (%) DBP”) is given as -7 ± 1%, the “Change (%) FABF (Femoral arteial blood flow)” value (“Change (%) FABF” for short) came out at 23 ± 7% and the “Change (%) VABF (Vertebral arterial blood flow)” value (from here on “Change (%) VABF”) is 90 ± 17%. In addition, in experiment [2], the “systric pressure of median sacral artery, change at 1 hr (%)” value (“systric pressure … change at 1 hr (%)” below) is -33.3±6.57%; the “systric pressure of median sacral artery, change at 2 hr (%)” value (shortened to “systric pressure … change at 2 hr (%)”) was -35.2±4.12%; the “systric pressure of median sacral artery, change at 4 hr (%)” value (“systric pressure … change at 4 hr (%)” for short) is reported as -34.0±2.42%; the “systric pressure of median sacral artery, change at 6 hr (%)” value (“systric pressure … change at 6 hr (%)” below) is listed as -32.8±2.72%. Further, the “systric pressure of median sacral artery, change at 24 hr (%)” value (shortened to “systric pressure … change at 24 hr (%)”) in experiment [2] was -13.0±5.94%. Further, the median effective dose (ED50) in the experiment on mongrel dogs [3] is 1.1 µg/kg.
In the case of `CC1=C(C(=O)OCCN2Cc3ccc(Cl)cc3C2)C(c2cccc([N+](=O)[O-])c2)C(C(=O)OCC2CC2)=C(C)N1` (centres unmarked) [Example 2, 3-[2-(5-Chloroisoindolin-2-yl)ethyl] 5-cyclopropymethyl 1.4-dihydro-2,6-dimethyl-4-(3-nitrophenyl)-pyridine-3,5-dicarboxylate], in the experiment with mongrel dogs [1], the “Change (%) DBP” value is on record as -7 ± 2%, the “Change (%) FABF” value is recorded as 23 ± 8% and the “Change (%) VABF” value is 40 ± 6%. Moreover, in experiment [2], the “systric pressure … change at 1 hr (%)” value is -3.0±1.47%; the “systric pressure … change at 2 hr (%)” value was -9.0±2.82%; the “systric pressure … change at 4 hr (%)” value is -13.2±6.15%; the “systric pressure … change at 6 hr (%)” value was -21.4±3.67%. Besides, the “systric pressure … change at 24 hr (%)” value in experiment [2] was -14.3±4.09%. For the same molecule, the ED50 with mongrel dogs [3] was found to be 1.6 µg/kg.
As to `COC(=O)C1=C(C)NC(C)=C(C(=O)OCCN(C)Cc2ccccc2)C1c1cccc([N+](=O)[O-])c1` (centres unmarked) [Nicardipine, 1,4-dihydro-2,6-dimethyl-4-(3-nitrophenyl)pyridine-3,5-dicarboxylic acid 3-2-(N-benzyl-N-methylamino)ethyl 5-methyl ester, reference compound], in the experiment on mongrel dogs [1], the “Change (%) DBP” value was -10 ± 1%, the “Change (%) FABF” value was found to be 14 ± 5% and the “Change (%) VABF” value was 32 ± 7%. Also, in experiment [2], the “systric pressure … change at 1 hr (%)” value is given as -10.0±2.28%; the “systric pressure … change at 2 hr (%)” value is given as -5.7±1.61%; the “systric pressure … change at 4 hr (%)” value was -3.0±2.01%; the “systric pressure … change at 6 hr (%)” value was -1.0±1.50%. For the same molecule, the “systric pressure … change at 24 hr (%)” value in experiment [2] was -4.2±1.88%. In addition, in the experiment on mongrel dogs [3], the median effective dose (ED50) came out at 4.2 µg/kg.
Consider `COC(=O)C1=C(C)NC(C)=C(C(=O)OC)C1c1ccccc1[N+](=O)[O-]` [Nifedipine, dimethyl ester of 1,4-dihydro-2,6-dimethyl-4-(2-nitrophenyl)pyridine-3,5-dicarboxylic acid, reference compound], for which, in experiment [2], the “systric pressure … change at 1 hr (%)” value was -19.3±4.41%; the “systric pressure … change at 2 hr (%)” value is -10.6±3.14%; the “systric pressure … change at 4 hr (%)” value is recorded as -4.3±2.70%; the “systric pressure … change at 6 hr (%)” value was -0.1±1.56%. Moreover, the “systric pressure … change at 24 hr (%)” value in experiment [2] is -1.1±1.06%.
